From patent publication US5332812A, “Solid-phase substrate containing modified heparin” (Board of Regents, The University of Texas System, priority 1991, dated 1994)
“Also recorded” adds a separate entry of the source.

Key:
[1] = tested on: B16 melanoma heparanase; test: Enzymatic degradation of 3H-labeled glycosaminoglycans by B16 melanoma cell extract, analysed by high-speed gel permeation chromatography; assay type: biochemical, mouse; details: for Degradation (heparanase susceptibility): 3H-labeled glycosaminoglycan, cell extract 80 ug protein, pH 6.0, 6 hr at 37 C, 20 mM SAL, decrease in area of high Mr half of peak; for Cleavage by melanoma heparanase (in words): B16 melanoma cell extracts in presence of SAL, FIG. 2; for Percentage degradation of the original substrate: first 6 h incubation with B16 cell extract
Description: The abilities of B16 cells to degrade HS from various origins and other purified glycosaminoglycans (heparin, chondroitin 4-sulfate, chondroitin 6-sulfate, dermatan sulfate, keratan sulfate, and hyaluronic acid) has been studied. […] HS metabolically labeled with [^35 S] sulfate was purified from basement membrane producing EHS sarcoma and PYS-2 carcinoma cells, and subendothelial matrices of bovine aortic endothelial (BAE) and corneal endothelial (BCE) cells (ibid). HS molecules purified from bovine lung and other glycosaminoglycans were labeled with tritium at their reducing termini using NaB[^3 H]4. […] In order to determine specific HS cleavage points, the newly formed reducing termini of HS fragments were investigated by: labeling with NaB[^3 H]4; hydrolysis to monosaccharides; and analysis of these saccharides by paper chromatography.
High-speed gel permeation chromatography. […] A one hundred microliter aliquot of sample solution was delivered into the injection port, and the chromatographic elution was performed with 0.2M sodium chloride at a flow rate of 1.0 ml/min at 55° C. […] In the analysis of radiolabeled materials, fractions corresponding to each 36 s of elution (0.6 ml) were collected and mixed with 3.0 ml of Liquiscint (National Diagnostics, Comerville, N.J.), and counted on a Beckman LS 2800 liquid scintillation counter (Beckman Instruments, Irvine, Calif.).
Enzymatic degradation of unmodified and modified HS. […] The incubation was carried out at 37° C. with gentle mixing, and was terminated by chilling the mixture to 4° C. and adding 20 ul of trichloroacetic acid to a final concentration of 5%. The supernatant was obtained by centrifugation at 9800×g for 5 min and it was subjected to analysis by high-speed gel permeation chromatography.
The effect of N-desulfation and N-acetylation of HS on its susceptibility to melanoma heparanase was assessed using HS labeled with tritium at the reducing terminal saccharide. […] HS labeled with tritium at the reducing end was N-desulfated by solvolysis with DMSO, and N-desulfated [^3 H]HS was then N-acetylated with acetic anhydride. These three ^3 H-labeled, chemically modified HS molecules were analyzed by cellulose acetate electrophoresis in 0.5M pyridine-acetate buffer, pH 5.0.
N-Desulfated and N-acetylated heparin.

[2] = tested on: human melanoma heparanase; test: Degradation by heparanase obtained from a human melanoma cell line; assay type: biochemical
[3] = tested on: B16 melanoma heparanase; details: labeled glycosaminoglycans, with or without D-saccharic acid 1,4-lactone; cited from earlier work
[4] = tested on: human melanoma heparanase; test: Inhibition of human melanoma heparanase; assay type: biochemical
Description: Properties of human melanoma heparanase.

[5] = tested on: B16 melanoma heparanase; details: cited from earlier work

Substance | Degradation (heparanase susceptibility) [1] | Degradation by B16 cell extracts (earlier publications) [3] | also measured
Carboxyl reduced heparin | - (less than 5%) |  | 
N-Desulfated and N-methylated heparin | - (less than 5%) |  | 
Heparan sulfate [Heparan sulfate (HS)] | + (more than 80%) | degraded into fragments of characteristic molecular weight | Degradation by human melanoma heparanase (in words) [2]: degrades heparan sulfate; Cleavage by melanoma heparanase (in words) [1]: cleaved by melanoma heparanase at high rates
N,O-Desulfated HS | + (more than 80%) |  | 
dermatan sulfate |  | essentially undegraded | 
N,O-Desulfated heparin | - (less than 5%) |  | 
chondroitin 4-sulfate |  | essentially undegraded | 
hyaluronic acid |  | essentially undegraded | 
N,O-Desulfated and N-acetylated HS | + (more than 80%) |  | 
N-desulfated N-acetylated heparan sulfate [N-Desulfated and N-acetylated HS] | + (more than 80%) |  | Degradation by human melanoma heparanase (in words) [2]: efficiently cleave; Cleavage by melanoma heparanase (in words) [1]: cleaved by melanoma heparanase at high rates
keratan sulfate |  | essentially undegraded | 
N,O-Desulfated and N-acetylated heparin | ± (5% to 15%) |  | 
dextransulfate |  |  | Inhibition of melanoma heparanase (in words) [4]: potent inhibitors
Heparin | - (less than 5%) | essentially undegraded; also recorded: inactive | Inhibition of HS degradation / B16 melanoma heparanase (earlier publications) [5]: inhibited HS degradation; also recorded: potent inhibitor; Inhibition of melanoma heparanase (in words) [4]: potent inhibitors; Percentage degradation of the original substrate [1]: less than 5%
chondroitin 6-sulfate |  | essentially undegraded | 
N-Desulfated heparin | - (less than 5%) |  | 
N-desulfated heparan sulfate [N-Desulfated HS] | + (more than 80%) |  | Degradation by human melanoma heparanase (in words) [2]: efficiently cleave; Cleavage by melanoma heparanase (in words) [1]: cleaved by melanoma heparanase at high rates
N-desulfated N-acetylated heparin [N-Desulfated and N-acetylated heparin] | ± (5% to 15%) |  | Degradation by human melanoma heparanase (in words) [2]: only partially degrade; Percentage degradation of the original substrate [1]: approximately 20%; Further cleavage after prolonged incubation ([1]; prolonged incubation with B16 cell extract): not further cleaved
